Test results: US20230405026A1, “A Method of Treating Depression by Immune Modulation” (Mynd Life Sciences Inc., priority 2020, published 2023)

Key:
ABCF1 [1] = test: Escitalopram induction of ABCF1 in RAW macrophages, real time RT-PCR; format: cell-based
Description: (§1) FIG. 1—illustrates that Escitalopram induces ABCF1 in a Macrophage cell line: RAW macrophages were plated at 1×10^5 cells/well and cultured for 2 days. The cells were incubated with 0.3 mM Escitalopram for 1 hour, and then harvested for total RNA, which was extracted for real time RT-PCR specific for ABCF1 and IL-4. CT values were normalized with CT value for the housekeeping gene from the DMSO control. The difference in the expression after drug treatment is consistent with polarization towards an M2-like phenotype (data were consistent in 3 separate experiments).
(§2) Additionally, noradrenergic or serotonin-norepinephrine reuptake inhibitors used to treat major depressive disorder have anti-inflammatory properties in vitro^55. […] Mechanistically, antidepressants likely mediate this through a reduction in pro-inflammatory cytokines IL-1b, TNFα, and IL-6 with a reciprocal increase in anti-inflammatory cytokines including […]. Studies have also shown that single nucleotide polymorphisms in IL-6 and IL-11, and mRNA levels of TNFα, are predictive of clinical response to the SSRI, escitalopram^63,64. Also, escitalopram modulates mRNA levels of cytokines in mouse brain^65 and decreases cytokine mRNA levels in the circulating immune cells of depression patients^60. […]

ABCF1 [2] = details: peripheral blood mononuclear cells of patients responding to escitalopram treatment; cited from earlier work
IL-4 = test: Escitalopram induction of IL-4 in RAW macrophages, real time RT-PCR; format: cell-based; details: RAW macrophage cell line, 0.3 mM Escitalopram, 1 hour, normalized to housekeeping gene, vs DMSO control (FIG. 1)
Description: as §1, §2

ABCF1 [3] = test: Effect of psylocibin, psylocin and analogs on ABCF1 transcription in RAW264.7, qPCR; format: cell-based; details: RAW264.7, 10 nM, 100 nM, 500 nM, normalized against GAPDH (FIG. 2)
Description: FIG. 2—illustrates the effect of psylocibin, psylocin and their analogs on ABCF1 transcription in a macrophage cell line. Briefly, the Macrophage cell line RAW264.7 (ATCC) were grown to 80% confluency in growth media (DMEM+ 10% FBS+ glutamine). Dilutions of psylocibin, psylocin and their analogs were made at desired final concentrations for a Dose response experiment. The concentrations' used for this experiment are: 10 nM, 100 nM, 500 nM for Psilocin, Psylocibin, 4-Acetoxy-N, N-dimthyltryptamine, O-Acetyl Psilocin Fumerate, and 4-acetoxyindole. The cells were incubated for 2 hours and then harvested for total RNA, which was extracted for real time RT-PCR specific for ABCF1. Untreated cells were used as negative control and Escitalopram at 0.3 mM was used as a positive control to activate ABCF1 expression for all the experiments. ES=escitalopram; PSYB=Psylocibin; PSIC=Psilocin; DMT=4-Acetoxy-N, N-dimthyltryptamine; APF=O-Acetyl Psilocin Fumerate, and AOI=4-acetoxyindole.
Preparation of Cells: • 1. Macrophage cell line RAW264.7 (ATCC) were grown to 80% confluency in growth media (DMEM+10% FBS+glutamine). • 2. Dilutions of the drugs were made at desired final concentrations for a Dose response experiment. […]
• 1. […] Normalized against the expression level of GAPDH, the fold change expression level of ABCF1 was calculated and tabulated for all treatment conditions.

Q: With `CN(C)CCC[C@@]1(c2ccc(F)cc2)OCc2cc(C#N)ccc21` [Escitalopram] as the molecule, how does the “induction of ABCF1 expression” value (ABCF1 [1]; RAW macrophage cell line, 0.3 mM Escitalopram, 1 hour, normalized to housekeeping gene, vs DMSO control (FIG. 1)) read?
A: approximately 20 fold

Q: What about the “ABCF1 induction in a macrophage cell line (in words)” value (ABCF1 [1]; RAW macrophages, 0.3 mM, 1 hour (FIG. 1 legend)) of the same molecule?
A: induces ABCF1

Q: What about the “transcription of ABCF1 in PBMCs” value (ABCF1 [2]) of the same molecule?
A: increased the transcription

Q: What about the “induction of IL-4 expression” value (IL-4) of the same molecule?
A: approximately 5 fold

Q: Which “ABCF1 transcription (in words)” value (ABCF1 [3]) does the source give for `CN(C)CCc1c[nH]c2cccc(O)c12` [psylocin, 4-hydroxy-N,N-dimethyltryptamine] here?
A: upregulate ABCF1 transcription
